# Source: patent US20020031782A1, “Mycobacterium tuberculosis CYP51 high resolution structure, polypeptides and nucleic acids, and therapeutic and screening methods relating to same” (priority 1999, published 2002)
# Where two headings read alike, the source gives them in different places.
# T1: MT P45014DM (Mycobacterium tuberculosis, UniProt P9WPP9)
# T1 sequence (P9WPP9 1-451): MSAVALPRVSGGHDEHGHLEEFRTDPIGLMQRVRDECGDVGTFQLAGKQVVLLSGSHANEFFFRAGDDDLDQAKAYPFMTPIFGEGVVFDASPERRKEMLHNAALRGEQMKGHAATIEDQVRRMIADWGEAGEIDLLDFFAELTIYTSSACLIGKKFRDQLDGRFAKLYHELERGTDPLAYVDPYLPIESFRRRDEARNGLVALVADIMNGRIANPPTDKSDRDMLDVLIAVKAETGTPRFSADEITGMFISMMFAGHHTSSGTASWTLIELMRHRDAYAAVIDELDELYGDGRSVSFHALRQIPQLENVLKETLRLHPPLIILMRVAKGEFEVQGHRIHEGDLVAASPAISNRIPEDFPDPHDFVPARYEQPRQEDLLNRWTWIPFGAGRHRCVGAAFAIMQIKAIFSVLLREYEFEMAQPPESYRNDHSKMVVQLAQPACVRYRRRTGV
# T2: bovine 17α-hydroxylase P450 (bC17) (Bos taurus, UniProt P05185)
# T2 sequence (P05185 1-509): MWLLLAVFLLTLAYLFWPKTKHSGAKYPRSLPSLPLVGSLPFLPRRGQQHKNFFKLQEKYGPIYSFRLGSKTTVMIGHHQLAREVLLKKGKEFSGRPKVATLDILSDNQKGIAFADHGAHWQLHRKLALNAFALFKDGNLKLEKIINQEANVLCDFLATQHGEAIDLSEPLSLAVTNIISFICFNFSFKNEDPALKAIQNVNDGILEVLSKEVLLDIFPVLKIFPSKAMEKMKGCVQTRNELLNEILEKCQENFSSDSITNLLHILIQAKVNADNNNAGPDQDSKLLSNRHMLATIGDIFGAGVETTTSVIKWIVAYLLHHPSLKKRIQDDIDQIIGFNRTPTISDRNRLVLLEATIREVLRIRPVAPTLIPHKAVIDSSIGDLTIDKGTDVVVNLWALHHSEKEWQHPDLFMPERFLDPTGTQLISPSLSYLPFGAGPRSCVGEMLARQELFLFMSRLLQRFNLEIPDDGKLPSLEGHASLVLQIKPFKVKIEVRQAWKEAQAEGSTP
# T3: cholesterol side chain cleavage P450 (SCC) (Bos taurus, UniProt P00189)
# T3 sequence (P00189 40-520): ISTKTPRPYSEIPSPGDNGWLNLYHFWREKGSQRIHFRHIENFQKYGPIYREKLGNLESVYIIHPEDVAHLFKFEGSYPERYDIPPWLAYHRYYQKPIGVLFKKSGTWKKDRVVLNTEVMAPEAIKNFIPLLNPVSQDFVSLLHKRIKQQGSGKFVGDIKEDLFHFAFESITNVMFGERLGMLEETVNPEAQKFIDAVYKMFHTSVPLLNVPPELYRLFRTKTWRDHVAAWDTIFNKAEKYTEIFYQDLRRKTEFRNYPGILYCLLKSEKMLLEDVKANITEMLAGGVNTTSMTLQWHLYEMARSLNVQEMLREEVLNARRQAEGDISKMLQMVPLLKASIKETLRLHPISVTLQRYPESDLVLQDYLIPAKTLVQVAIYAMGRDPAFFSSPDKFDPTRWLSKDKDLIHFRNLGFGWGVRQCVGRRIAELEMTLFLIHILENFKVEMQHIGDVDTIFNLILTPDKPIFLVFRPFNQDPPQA
# Experiments:
# MT P45014DM [1] = target: T1, MT P45014DM; test: biochemical; format: binding; parameters: DNA segments encoding full length proteins preferably have a coding length on the order of about 1353 nucleotides; made in house; host or cells: E. coli HMS174, vector pet17b; settings: for Kd: type I substrate-induced difference spectrum, 10 μM MT P45014DM, read-out: Ks value (binding constant), substrate
# MT P45014DM [2] = target: T1, MT P45014DM; test: Reconstituted catalytic activity: sterol 14α-demethylation by MT P45014DM; format: biochemical; parameters: DNA segments encoding full length proteins preferably have a coding length on the order of about 1353 nucleotides; made in house; host or cells: E. coli HMS174, vector pet17b
# MT H37RA = test: Effect of azole inhibitors on growth of MT; format: cell-based, Mycobacterium tuberculosis
# Experimental: The characterization of the CYP51 enzyme of the present invention in MT leads to the analysis of the function of this enzyme in the disease tuberculosis and of whether this enzyme represents a new drug target for the treatment of tuberculosis. Particularly, the effects of three azole inhibitors on the growth of MT H37RA, an alternated strain of MTH37R which is the pathogenic strain whose genomic sequence was determined by Cole et al., (1998) Nature […]:537-544 (bacterial strains provided by Dr. Dean Crick at Colorado State University) were examined.
# As contemplated by applicants in accordance with the present invention, it was observed that ketoconazole has a profound effect on the growth of MT, stopping growth at about a 25 μM concentration. […] The targeting of ketoconazole to P45014DM in MT also leads to the identification of additional specific azole inhibitors which have far greater specificity for the MT CYP45014DM enzyme as compared to the human CYP45014DM enzyme. Such inhibitors therefore will have fewer side effects than less specific inhibitors. Thus, as described above, a method of screening for highly specific inhibitors of MT CYP45014DM in accordance with the screening methods described herein above comprises another aspect of the present invention.
# maize microsomes = settings: Salmon et al. 1992; read-out: binding constant estimated for maize microsomes; cited from earlier work
# MT P45014DM [3] = target: T1, MT P45014DM; test: biochemical; format: binding; parameters: DNA segments encoding full length proteins preferably have a coding length on the order of about 1353 nucleotides; made in house; host or cells: E. coli HMS174, vector pet17b
# [4] = target: T2, bovine 17α-hydroxylase P450 (bC17); test: CO-based reduction of 17α-hydroxylase P450 by electron donors (control); format: biochemical; settings: compared to 100% determined by sodium hydrosulfite
# [5] = target: T3, cholesterol side chain cleavage P450 (SCC); test: CO-based reduction of cholesterol side chain cleavage P450 by electron donor (control); format: biochemical, bovine; settings: compared to 100% determined by sodium hydrosulfite
# MT P45014DM [6] = target: T1, MT P45014DM; settings: compared to 100% determined by sodium hydrosulfite
molecule,measurement,setting,value
C=C(CC[C@@H](C)[C@H]1CC[C@@]2(C)C3=C(CC[C@]12C)[C@@]1(C)CC[C@H](O)C(C)(C)[C@@H]1CC3)C(C)C [24-methylene-dihydrolanosterol],sterol binding to the enzyme (yes/no),MT P45014DM [1],did not bind
"CC(C)CCC[C@@H](C)[C@H]1CC[C@@]2(C)C3=C(CC[C@]12C)[C@@]1(C)CC[C@H](O)C(C)(C)[C@@H]1CC3 [DHL, 24,25-dihydrolanosterol]",sterol binding to the enzyme (yes/no),MT P45014DM [1],binds
same,Kd,MT P45014DM [1],~1 µM
same,Total product recovered from the quenched reaction mixtures,MT P45014DM [2],20%
CC(C)=CCC[C@@H](C)[C@H]1CC[C@@]2(C)[C@@H]3CC[C@H]4C(C)(C)[C@@H](O)CC[C@@]45C[C@@]35CC[C@]12C [cycloartenol],sterol binding to the enzyme (yes/no),MT P45014DM [1],"Neither parkeol, cycloartenol, nor zymosterol (FIG. 3A) were found to bind"
CC(=O)N1CCN(c2ccc(OCC3COC(Cn4ccnc4)(c4ccc(Cl)cc4Cl)O3)cc2)CC1 (stereo not shown) [ketoconazole],concentration stopping growth of MT,MT H37RA,~25 µM
same,Kd,maize microsomes,10 µM
same,Kd,MT P45014DM [3],~5 µM
same,inhibition of the 14α-demethylation of DHL,MT P45014DM [2],inhibit
CC(C)=CCC[C@@H](C)[C@H]1CC[C@@]2(C)C3=C(CC[C@]12C)[C@@]1(C)CC[C@H](O)C(C)(C)[C@@H]1CC3 [lanosterol],sterol binding to the enzyme (yes/no),MT P45014DM [1],binds
same,Kd,MT P45014DM [1],~1 µM
same,Total product recovered from the quenched reaction mixtures,MT P45014DM [2],1%
C=C(CC[C@@H](C)[C@H]1CC[C@@]2(C)C3=C(CC[C@]12C)[C@@]1(C)CC[C@H](O)[C@@H](C)[C@@H]1CC3)C(C)C [obtusifoliol],sterol binding to the enzyme (yes/no),MT P45014DM [1],binds
same,Kd,MT P45014DM [1],0.35 ± 0.15 µM
same,Total product recovered from the quenched reaction mixtures,MT P45014DM [2],98%
CC(C)=CCC[C@@H](C)[C@H]1CC[C@@]2(C)[C@@H]3CC[C@H]4C(C)(C)[C@@H](O)CC[C@]4(C)C3=CC[C@]12C [parkeol],sterol binding to the enzyme (yes/no),MT P45014DM [1],"Neither parkeol, cycloartenol, nor zymosterol (FIG. 3A) were found to bind"
"CC(C)=CCC[C@@H](C)[C@H]1CC[C@H]2C3=C(CC[C@]12C)[C@@]1(C)CC[C@H](O)C[C@@H]1CC3 [zymosterol, 4,4,14-tridesmethyl lanosterol]",sterol binding to the enzyme (yes/no),MT P45014DM [1],"Neither parkeol, cycloartenol, nor zymosterol (FIG. 3A) were found to bind"
"Fld/Fdr: E. coli flavodoxin/flavodoxin reductase two-component electron donor system (protein, UniProt P61949 2-176; P28861 2-248, looked up) Flavodoxin 1: AITGIFFGSDTGNTENIAKMIQKQLGKDVADVHDIAKSSKEDLEAYDILLLGIPTWYYGEAQCDWDDFFPTLEEIDFNGKLVALFGCGDQEDYAEYFCDALGTIRDIIEPRGATIVGHWPTAGYHFEASKGLADDDHFVGLAIDEDRQPELTAERVEKWVKQISEELHLDEILNA Flavodoxin/ferredoxin--NADP …: ADWVTGKVTKVQNWTDALFSLTVHAPVLPFTAGQFTKLGLEIDGERVQRAYSYVNSPDNPDLEFYLVTVPDGKLSPRLAALKPGDEVQVVSEAAGFFVLDEVPHCETLWMLATGTAIGPYLSILQLGKDLDRFKNLVLVHAARYAADLSYLPLMQELEKRYEGKLRIQTVVSRETAAGSLTGRIPALIESGELESTIGLPMNKETSHVMLCGNPQMVRDTQQLLKETRQMTKHLRRRPGHMTAEHYW",reduction of bC17 (reduced-CO spectrum),[4],77%
"Adx/Adr: bovine adrenodoxin/adrenodoxin reductase electron donor system (protein, UniProt P00257 59-186; P08165 33-492, looked up, two-protein electron donor system) Adrenodoxin, mitochondrial: SSSEDKITVHFINRDGETLTTKGKIGDSLLDVVVQNNLDIDGFGACEGTLACSTCHLIFEQHIFEKLEAITDEENDMLDLAYGLTDRSRLGCQICLTKAMDNMTVRVPDAVSDARESIDMGMNSSKIE NADPH:adrenodoxin …: STQEQTPQICVVGSGPAGFYTAQHLLKHHSRAHVDIYEKQLVPFGLVRFGVAPDHPEVKNVINTFTQTARSDRCAFYGNVEVGRDVTVQELQDAYHAVVLSYGAEDHQALDIPGEELPGVFSARAFVGWYNGLPENRELAPDLSCDTAVILGQGNVALDVARILLTPPDHLEKTDITEAALGALRQSRVKTVWIVGRRGPLQVAFTIKELREMIQLPGTRPMLDPADFLGLQDRIKEAARPRKRLMELLLRTATEKPGVEEAARRASASRAWGLRFFRSPQQVLPSPDGRRAAGIRLAVTRLEGIGEATRAVPTGDVEDLPCGLVLSSIGYKSRPIDPSVPFDPKLGVVPNMEGRVVDVPGLYCSGWVKRGPTGVITTTMTDSFLTGQILLQDLKAGHLPSGPRPGSAFIKALLDSRGVWPVSFSDWEKLDAEEVSRGQASGKPREKLLDPQEMLRLLGH",reduction of SCC (reduced-CO spectrum),[5],80%
same,reduction of MT P45014DM (reduced-CO spectrum),MT P45014DM [6],n.r.
"rat P450 reductase: rat microsomal NADPH cytochrome P450 reductase (protein, UniProt P00388 2-678, looked up) NADPH--cytochrome P450 …: GDSHEDTSATMPEAVAEEVSLFSTTDMVLFSLIVGVLTYWFIFRKKKEEIPEFSKIQTTAPPVKESSFVEKMKKTGRNIIVFYGSQTGTAEEFANRLSKDAHRYGMRGMSADPEEYDLADLSSLPEIDKSLVVFCMATYGEGDPTDNAQDFYDWLQETDVDLTGVKFAVFGLGNKTYEHFNAMGKYVDQRLEQLGAQRIFELGLGDDDGNLEEDFITWREQFWPAVCEFFGVEATGEESSIRQYELVVHEDMDVAKVYTGEMGRLKSYENQKPPFDAKNPFLAAVTANRKLNQGTERHLMHLELDISDSKIRYESGDHVAVYPANDSALVNQIGEILGADLDVIMSLNNLDEESNKKHPFPCPTTYRTALTYYLDITNPPRTNVLYELAQYASEPSEQEHLHKMASSSGEGKELYLSWVVEARRHILAILQDYPSLRPPIDHLCELLPRLQARYYSIASSSKVHPNSVHICAVAVEYEAKSGRVNKGVATSWLRAKEPAGENGGRALVPMFVRKSQFRLPFKSTTPVIMVGPGTGIAPFMGFIQERAWLREQGKEVGETLLYYGCRRSDEDYLYREELARFHKDGALTQLNVAFSREQAHKVYVQHLLKRDREHLWKLIHEGGAHIYVCGDARNMAKDVQNTFYDIVAEFGPMEHTQAVDYVKKLMTKGRYSLDVWS",reduction of bC17 (reduced-CO spectrum),[4],73%
same,reduction of MT P45014DM (reduced-CO spectrum),MT P45014DM [6],n.r.
